Measurements from PMC2785482, “Combined Bezafibrate and Medroxyprogesterone Acetate: Potential Novel Therapy for Acute Myeloid Leukaemia” (PLoS ONE, 2009).

Biological target: T1, AKR1C3 (Homo sapiens, UniProt P42330)
T1 construct: Recombinant N-terminal His-tagged AKR1C3
Experiment: recombinant AKR1C3 phenanthrenequinone reduction, NADPH absorbance at […] nm
Assay type: biochemical

T1 sequence (P42330 whole entry): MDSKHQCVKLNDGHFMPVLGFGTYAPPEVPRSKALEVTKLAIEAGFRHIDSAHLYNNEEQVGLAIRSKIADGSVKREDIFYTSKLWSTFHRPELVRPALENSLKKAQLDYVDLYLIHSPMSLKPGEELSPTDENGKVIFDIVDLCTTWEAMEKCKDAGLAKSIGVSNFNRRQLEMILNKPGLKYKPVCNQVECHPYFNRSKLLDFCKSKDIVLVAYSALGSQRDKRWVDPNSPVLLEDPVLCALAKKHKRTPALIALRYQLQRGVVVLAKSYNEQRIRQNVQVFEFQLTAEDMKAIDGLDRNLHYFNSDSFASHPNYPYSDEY

Work on `CC(=O)O[C@]1(C(C)=O)CC[C@H]2[C@@H]3C[C@H](C)C4=CC(=O)CC[C@]4(C)[C@H]3CC[C@@]21C` [MPA, medroxyprogesterone acetate] yielded an IC50 of 1.1 µM.
